Results reported in patent US20100298305A1, “TIZANIDINE FOR THE TREATMENT OF POST-TRAUMATIC STRESS DISORDER AND NIGHTMARES” (The United States Government, as represented by the …, priority 2008, published 2010).
Where two headings read alike, the source gives them in different places.

What was measured:
PTSD [1] = test: Example 1 case summaries 1-6: tizanidine as adjunctive treatment for PTSD, anxiety, depression, psychosis or impaired cognition; format: in vivo, human; conditions: for signs or symptoms: Case 3, more than two years, sertraline 250 mg daily, divalproex sodium 2500 mg daily, quetiapine 100 mg twice daily and 400 mg at bedtime, amitriptyline 25 mg at bedtime, tramadol 50 mg as needed
Protocol: Treatment was begun with sertraline 100 mg per day for anxiety and nortriptyline 25 mg at bedtime for headaches. […] Treatment with tizanidine was started and the dose was increased to 8 mg at bedtime.
Tizanidine was started and titrated up to 4 mg at bedtime along with aripiprazole (15 mg at bedtime) and clonazepam (0.5 mg daily).
These medications included sertraline (250 mg daily), divalproex sodium (2500 mg daily), quetiapine (100 mg twice daily and 400 mg at bedtime), amitriptyline (25 mg at bedtime), and tramadol (50 mg as needed for severe headache). […] A trial of tizanidine was started and the dose was titrated up to 8 mg at bedtime.
Pharmacologic Treatment and Response: While on the psychiatry unit, they were treated with sertraline for PTSD and nortriptyline for headaches and depression. […] They were started on tizanidine 4 mg at bedtime.
After approximately one year, subject agreed to a trial of tizanidine as an addition to sertraline. […] They agreed to increase the dose to 4 mg at bedtime and follow-up in four weeks. […] An atypical antipsychotic medication, aripiprazole, was added to their medications.
Treatment with tizanidine 4 mg at bedtime was added to the existing sertraline.

PTSD [2] = test: Example 2 case summaries 7-9: switching from once to twice-daily dosing of tizanidine; conditions: for improvement on medications: approximately one year, doses close to the maximum recommended dose
Protocol: They were continued on aripiprazole, quetiapine, sertraline, and trazodone. Treatment with tizanidine was started for the nightmares and poor sleep.
They were switched from tizanidine 8 mg at bedtime to tizanidine 6 mg in the morning and 8 mg at bedtime. […] They continued on the sertraline, divalproex, and trazodone for initial insomnia. The tizanidine was switched to 4 mg in the morning and 4 mg at bedtime.
Subject was started on tizanidine up to 8 mg at bedtime for nightmares. They also were issued a device to assist with memory problems. A rating scale for common cognitive problems was administered by speech pathology prior to issuing them a personal digital assistant as a memory assist device.
They continued to take sertraline and tizanidine. At a psychology evaluation session, subject completed two self-report instruments of PTSD and depressive symptoms to establish a baseline indication of symptom severity. […] Subject was then switched from tizanidine 8 mg at bedtime to 4 mg twice daily.
After approximately one year of being followed in the psychiatry clinic, they became more willing to try medication and agreed to a trial of tizanidine.

PTSD [3] = conditions: Case 10; for ADHD symptoms: earlier medication trials during military service
Source text: Given the prior history of ADHD, methylphenidate was cautiously added to the venlafaxine. […] They were referred to a specialty inpatient program for PTSD. During the inpatient program, the antidepressant was switched from venlafaxine to duloxetine.

[4] = Case 8, sertraline 150 mg per day, two months later
[5] = Case 1, sertraline 100 mg per day with nortriptyline 25 mg at bedtime, after four weeks
[6] = Case 4, sertraline with nortriptyline, five days after hospital discharge

## CN(C)CCC=C1c2ccccc2CCc2ccccc21 [amitriptyline]
PTSD [1]
  signs or symptoms: None of these medications significantly reduced their signs or symptoms

## O=C1CCc2ccc(OCCCCN3CCN(c4cccc(Cl)c4Cl)CC3)cc2N1 [aripiprazole]
PTSD [2]; Case 7
  improvement on medications: only modest improvement

## CC(NC(C)(C)C)C(=O)c1cccc(Cl)c1 (stereo not shown) [bupropion]
PTSD [3]
  ADHD symptoms: neither of which were effective

## CCCC(CCC)C(=O)O [divalproex sodium]
PTSD [2]; Case 7
  improvement on medications: only modest improvement
PTSD [1]
  signs or symptoms: None of these medications significantly reduced their signs or symptoms

## CNCC[C@H](Oc1cccc2ccccc12)c1cccs1 [duloxetine]
PTSD [3]; antidepressant switched from venlafaxine to duloxetine
  helpfulness as judged by subject: did not believe the duloxetine was helpful

## OCCOCCN1CCN(C(c2ccccc2)c2ccc(Cl)cc2)CC1 (stereo not shown) [hydroxyzine]
PTSD [2]; Case 7
  improvement on medications: only modest improvement

## COC(=O)C(c1ccccc1)C1CCCCN1 (stereo not shown) [methylphenidate]
PTSD [3]
  ADHD symptoms: neither of which were effective
PTSD [3]; methylphenidate added to venlafaxine
  mood and anxiety symptoms: marked improvement
PTSD [3]; methylphenidate as monotherapy, several weeks
  mood and anxiety symptoms: improved mood and anxiety symptoms
PTSD [3]; short-acting methylphenidate 10 mg three times daily
  mood, anxiety, and cognitive symptoms: additional improvements

## COc1cc2nc(N3CCN(C(=O)c4ccco4)CC3)nc(N)c2cc1OC [prazosin]
PTSD [1]; Case 2, prazosin 5 mg at bedtime added, sertraline increased to 200 mg daily
  nightmares: reduced but did not eliminate nightmares

## OCCOCCN1CCN(C2=Nc3ccccc3Sc3ccccc32)CC1 [quetiapine]
PTSD [2]; Case 7
  improvement on medications: only modest improvement
PTSD [1]; Case 2, trial of quetiapine
  hallucinations: did not affect the hallucinations
PTSD [1]
  signs or symptoms: None of these medications significantly reduced their signs or symptoms

## CN[C@H]1CC[C@@H](c2ccc(Cl)c(Cl)c2)c2ccccc21 [sertraline]
PTSD [2]; Case 7
  improvement on medications: only modest improvement
PTSD [2]; [4]
  anxiety symptoms: responded well
  irritability: not improved
PTSD [1]; [5]
  anxiety, depression, and psychosis: only a modest decrease
  intensity and frequency of nightmares: unchanged
PTSD [1]; Case 2, sertraline 200 mg daily, bupropion 150 mg twice daily and prazosin 5 mg at bedtime, one year
  anxiety, nightmares, and psychosis: only a mild impact
PTSD [1]
  signs or symptoms: None of these medications significantly reduced their signs or symptoms
PTSD [1]; [6]
  hallucinations and paranoia: improvements regarding hallucinations and paranoia
  sleep problems and nightmares: persistent sleep problems and nightmares
PTSD [1]; Case 5, sertraline increased to 200 mg per day with sodium divalproex and aripiprazole added, twelve months
  response to medication changes: only a modest response
PTSD [1]; Case 5, sertraline since release from military duty
  treatment results: poor results
PTSD [1]; Case 6, sertraline up to 200 mg per day, approximately one year
  PTSD signs and symptoms: only modest improvement

## CC1(C)O[C@@H]2[C@@H](CO[C@@]3(COS(N)(=O)=O)OC(C)(C)O[C@@H]23)O1 [topiramate]
PTSD [2]; Case 7, recent addition of topiramate
  frequency of combined visual-olfactory hallucinations: did not reduce the frequency

## COc1cccc(C2(O)CCCCC2CN(C)C)c1 (stereo not shown) [tramadol]
PTSD [1]
  signs or symptoms: None of these medications significantly reduced their signs or symptoms

## O=c1n(CCCN2CCN(c3cccc(Cl)c3)CC2)nc2ccccn12 [trazodone]
PTSD [2]; Case 7
  improvement on medications: only modest improvement

## COc1ccc(C(CN(C)C)C2(O)CCCCC2)cc1 (stereo not shown) [venlafaxine]
PTSD [2]; Case 8, Venlafaxine up to 150 mg daily
  adverse effect: developed akathisia
PTSD [3]; venlafaxine sustained-release 225 mg per day with zolpidem 10 mg at bedtime
  mood and anxiety symptoms: only modestly improved
PTSD [1]; Case 2, sertraline switched to venlafaxine up to 300 mg daily, six months
  condition: did not significantly change their condition

## Cc1ccc(-c2nc3ccc(C)cn3c2CC(=O)N(C)C)cc1 [zolpidem]
PTSD [2]; Case 8, initial treatment with zolpidem
  nightmares: did not improve the nightmares
